Results on 1 compound are retold here after patent publication US11331328B2, “Compositions and methods for inhibiting antiapoptotic Bcl-2 proteins as anti-aging agents” (priority 2014, dated 2022).

Data set [1] deals with wild-type or p16-3MR mice. Particulars: at the doses used; cited from earlier work.
The test system of data set [2] is IL-1α, TNFα, CCL-5, CXCL-10 mRNA. Put plainly: SASP mRNA levels in lungs of TBI p16-3MR mice (qRT-PCR). The data set is classed as in vivo, mouse. Particulars: 6 Gy TBI; 2 treatment cycles. As for the experimental part:
To measure p21 and GAPDH mRNA levels in WI-38 cells and IL-1α, TNFα, CCL-5, and CXCL-10 mRNA levels in mouse tissues, SYBR assay kit was used (Applied biosystems in life technologies). Briefly, 1 μl cDNA was mixed with 7.5 μl SYBR Green PCR Master Mix and 0.2 μl of primers (Table 5). Samples were then added with 6.30 μl of H2O to give a total 15 μl of mixture. qPCR conditions were as follows: 95° C. for 10 min, 40×(95° C. for 15 s and 60° C. for 1 min), 95° C. for […], 95° C. for 15 min. All reactions were run in triplicate on an ABI StepOnePlus Real-Time PCR System.
On the technique in general: Real-time PCR tracks product formation cycle by cycle.

The subject of data set [3] is senescent cells in TBI p16-3MR mice. The experiment in a line: Senescent cell clearance in TBI p16-3MR mice (luminescence, p16 mRNA). It is filed as in vivo, mouse. The conditions noted are these: 6 Gy TBI; 2 treatment cycles.
Procedure: ABT was given by gavage at 50 mg/kg/d for 7 d per cycle for 2 cycles with a 2-wk interval. GCV was given to the mice by ip injection at 25 mg/kg/d for 5 d per cycle for 2 cycles with a 2-wk interval. […] The mice were euthanized the day after the imaging by CO2 inhalation and followed by cervical dislocation. Tissues were harvested for immediate tissue luminescence imaging as described below or RNA extraction for analyses of p16, IL-1α, CCL-5, and CXCL-10 mRNA levels by qRT-PCR.
For in vivo luminescence, mice were injected i.p. with 250 μl of Xenolight RediJect Coelenterazine h (100 μg/mL, Calipers-PerkinElmer, Waltham, Mass., USA). The mice were anesthetized with 4% isoflurane gas at 1 L/minute oxygen flow 5 min after the injection. Luminescence images were acquired using a Xenogen IVIS-200 Optical In Vivo imaging System equipped with a Living Image Version 4.3.1 (Caliper Life Sciences, Hopkinton Mass., USA). Mice were oriented in a supine position in the scanner. […]
For tissue luminescence imaging, after harvested from euthanized mice, tissues were immediately soaked in pre-warmed (37° C.) PBS with 2% FBS and 1:10 dilution of Xenolight RediJect Coelenterazine h for 10 min. They were transferred into a new 35-mm dish and luminescence images were taken 12-15 min after soaking in the substrate solution using a Xenogen IVIS-200 Optical In Vivo imaging System. […]

In the case of `Nc1nc(O)c2ncn(COC(CO)CO)c2n1` [GCV, ganciclovir], the toxicity to mice entry in data set [1] is “non-toxic to wild-type or p16-3MR mice”. The SASP in lungs entry in data set [2] was “suppressed the SASP induced by TBI”. For the same compound, in data set [3], the “SCs in lungs (luminescence, p16 mRNA)” value is recorded as “reduced IR-induced SCs”.
